Assay results taken from patent US9156762B2, “4,4-bis[(ethenyloxy)methyl]cyclohexene and method for producing same” (Nippon Carbide Industries Co., Inc., priority 2011, dated 2015).

Assay: skin irritability (stated in words, no method described)
Details: the vinyl ether itself

C=COCC1(COC=C)CC=CCC1 [4,4-bis[(ethenyloxy)methyl]cyclohexene]
skin irritability: low
